Experimental data taken from ChEMBL document CHEMBL4007424, “Design and Synthesis of Enantiomerically Pure Decahydroquinoxalines as Potent and Selective κ-Opioid Receptor Agonists with Anti-Inflammatory Activity in Vivo” (J Med Chem, 2017).

Assays:
[1] = Displacement of [3H]DPDPE from delta-type opioid receptor in guinea pig brain membranes after 120 mins by solid scintillation counting; format: cell membranes, Cavia porcellus, Membrane
[2] = target: Kappa-type opioid receptor (Cavia porcellus, UniProt P41144); test: Displacement of [3H]U-69,593 from kappa-type opioid receptor in guinea pig brain membranes after 120 mins by solid scintillation counting; format: cell membranes, Membrane
[3] = target: T1, Kappa-type opioid receptor (Homo sapiens, UniProt P41145); test: Agonist activity at recombinant human kappa-type opioid receptor expressed in HEK293 cells after 30 mins by [35S]GTPgammaS binding assay; format: functional, cell-based
[4] = system: Mus musculus; test: Antiinflammatory activity in arachidonic acid-induced ear dermatitis ICR mouse model assessed as reduction in ear swelling at 1 mg administered twice tropically 30 mins prior and 15 mins after arachidonic acid addition measured 60 mins post arachidonic acid challenge relative to control; format: functional
[5] = system: Mus musculus; test: Antiinflammatory activity in arachidonic acid-induced ear dermatitis ICR mouse model assessed as reduction in ear swelling at 0.3 mg administered twice tropically 30 mins prior and 15 mins after arachidonic acid addition measured 60 mins post arachidonic acid challenge relative to control; format: functional
[6] = system: Mus musculus; test: Antiinflammatory activity in arachidonic acid-induced ear dermatitis ICR mouse model assessed as reduction in ear swelling at 3 mg administered twice tropically 30 mins prior and 15 mins after arachidonic acid addition measured 60 mins post arachidonic acid challenge relative to control; format: functional
[7] = system: Mus musculus; test: Antiinflammatory activity in arachidonic acid-induced ear dermatitis ICR mouse model assessed as reduction in ear swelling at 0.1 mg administered twice tropically 30 mins prior and 15 mins after arachidonic acid addition measured 60 mins post arachidonic acid challenge relative to control; format: functional
[8] = target: Mu-type opioid receptor (Cavia porcellus, UniProt P97266); test: Displacement of [3H]DAMGO from mu-type opioid receptor in guinea pig brain membranes after 120 mins by solid scintillation counting; format: cell membranes, Membrane
[9] = organism: Rattus norvegicus; test: Displacement of [3H]-DTG from sigma 2 receptor in rat liver membranes at 1 uM after 120 mins by scintillation counting; format: cell membranes; details: Membrane
[10] = organism: Sus scrofa; test: Displacement of [3H]-(+)-MK 801 from PCP binding site of NMDA receptor in pig brain cortex membranes at 10 uM after 120 mins by solid scintillation counting; format: cell membranes
[11] = Plasma concentration in Wistar Han rat at 5 mg/kg, iv measured 0.25 hrs post compound administration; format: ADME, organism-based
[12] = Drug level in Wistar Han rat brain at 5 mg/kg, iv measured 1 hr post compound administration; format: ADME, organism-based; details: read-out: Drug uptake
[13] = Ratio of drug level in brain to plasma in Wistar Han rat at 5 mg/kg, iv after 1 hr; format: ADME, organism-based; details: read-out: BPR
[14] = Plasma concentration in Wistar Han rat at 5 mg/kg, iv measured 1 hr post compound administration; format: ADME, organism-based
[15] = system: Rattus norvegicus; test: Toxicity in Wistar Han rat assessed as assessed as clinical signs changes at 5 mg/kg, iv after 1 hr; format: organism-based; details: in vivo
[16] = target: Sigma non-opioid intracellular receptor 1 (Cavia porcellus) (UniProt Q60492); test: Displacement of [3H]-(+)-pentazocine from sigma1-type […] receptor in guinea pig cortex membranes at 1 uM after 120 mins by solid scintillation counting; format: cell membranes
[17] = target: T1, Kappa-type opioid receptor; test: Agonist activity at recombinant human kappa-type opioid receptor expressed in HEK293 cells at 1 uM after 30 mins by [35S]GTPgammaS binding assay; format: functional, cell-based
[18] = target: Mu-type opioid receptor (Cavia porcellus) (UniProt P97266); test: Displacement of [3H]DAMGO from mu-type opioid receptor in guinea pig brain membranes at 1 uM after 120 mins by solid scintillation counting; format: cell membranes; details: Membrane
[19] = Lipophilicity, logD of the compound at pH 7.4 by LC/MS analysis; format: physicochemical; details: buffer

Chain of Mu-type opioid receptor (P97266 whole entry): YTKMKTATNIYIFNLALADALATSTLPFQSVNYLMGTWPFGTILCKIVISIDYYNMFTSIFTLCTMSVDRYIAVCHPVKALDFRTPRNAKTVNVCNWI
Chain of Sigma non-opioid intracellular receptor 1 (Cavia porcellus) (Q60492 whole entry): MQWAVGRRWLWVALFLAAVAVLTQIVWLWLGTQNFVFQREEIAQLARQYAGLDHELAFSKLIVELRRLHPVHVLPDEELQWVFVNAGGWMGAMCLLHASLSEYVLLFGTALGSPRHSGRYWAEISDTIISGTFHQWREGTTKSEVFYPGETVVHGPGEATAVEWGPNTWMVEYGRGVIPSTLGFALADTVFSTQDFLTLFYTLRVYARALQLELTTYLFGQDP
T1 sequence (P41145 whole entry): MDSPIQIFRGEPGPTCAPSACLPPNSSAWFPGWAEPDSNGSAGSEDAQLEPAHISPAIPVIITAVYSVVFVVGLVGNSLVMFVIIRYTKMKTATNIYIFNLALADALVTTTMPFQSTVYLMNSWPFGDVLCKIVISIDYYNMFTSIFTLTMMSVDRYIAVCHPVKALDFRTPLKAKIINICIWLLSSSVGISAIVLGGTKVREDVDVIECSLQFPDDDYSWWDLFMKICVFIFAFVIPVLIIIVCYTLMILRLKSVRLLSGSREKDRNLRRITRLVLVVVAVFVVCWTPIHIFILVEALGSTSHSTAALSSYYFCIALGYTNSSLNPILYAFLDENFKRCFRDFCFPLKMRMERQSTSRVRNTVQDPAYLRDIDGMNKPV
Chain of Kappa-type opioid receptor (Cavia porcellus, UniProt P41144) (P41144 whole entry): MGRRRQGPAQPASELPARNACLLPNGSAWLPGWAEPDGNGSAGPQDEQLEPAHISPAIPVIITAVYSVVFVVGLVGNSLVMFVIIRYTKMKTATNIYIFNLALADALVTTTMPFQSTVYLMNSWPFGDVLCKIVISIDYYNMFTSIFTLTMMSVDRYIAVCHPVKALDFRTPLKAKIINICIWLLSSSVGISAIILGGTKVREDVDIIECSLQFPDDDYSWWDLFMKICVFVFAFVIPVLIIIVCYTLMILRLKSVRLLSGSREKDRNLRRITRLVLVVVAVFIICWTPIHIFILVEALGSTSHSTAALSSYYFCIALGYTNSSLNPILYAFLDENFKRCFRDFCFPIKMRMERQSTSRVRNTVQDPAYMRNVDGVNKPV
Chain of Mu-type opioid receptor (Cavia porcellus) (P97266 whole entry): as the sequence (P97266 whole entry) above

Row | SMILES | Ki [1] [nM] | Ki [2] [nM] | EC50 [3] [nM] | inhibition (INH) [4] [%] | inhibition (INH) [5] [%] | inhibition (INH) [6] [%] | inhibition (INH) [7] [%] | Ki [8] [nM] | inhibition [9] [%] | inhibition [10] [%] | other results
1 | COC(=O)N1CCN(C(=O)Cc2ccc(Cl)c(Cl)c2)[C@@H]2[C@@H](N(C)C)CCC[C@@H]21 | 7.9 | 0.16 | 1 | – | – | – | – | – | – | – | –
2 | CS(=O)(=O)N1CCN(C(=O)Cc2ccc(Cl)c(F)c2)[C@@H]2[C@@H](N3CC[C@H](O)C3)CCC[C@@H]21 | 394 | 2.1 | 8 | 46 | 43 | 71 | 33 | 308 | – | – | –
3 | COC(=O)N1CCN(C(=O)Cc2ccc(F)c(Cl)c2)[C@@H]2[C@@H](N3CC[C@H](O)C3)CCC[C@@H]21 | 61 | 0.82 | 2.2 | 58 | -4 | 66 | -12 | 1300 | – | – | –
4 | O=C(Cc1ccc(Cl)c(Cl)c1)N1CCN[C@H]2CCC[C@H](N3CCCC3)[C@H]21 | – | – | – | – | – | – | – | – | 0 | 0 | –
5 | CC(C)NC(=O)N1CCN(C(=O)Cc2ccc(Cl)c(Cl)c2)[C@@H]2[C@@H](N3CCCC3)CCC[C@@H]21 | 237 | 2.5 | 4.5 | – | – | – | – | – | – | – | –
6 | COC(=O)N1CCN(C(=O)Cc2cccc(Cl)c2)[C@@H]2[C@@H](N3CC[C@H](O)C3)CCC[C@@H]21 | 1120 | 1.7 | 15 | 44 | 12 | 55 | -15 | 512 | – | – | –
7 | COC(=O)N1CCN(C(=O)Cc2ccc(Cl)cc2)[C@@H]2[C@@H](N3CC[C@H](O)C3)CCC[C@@H]21.Cl | – | – | – | – | – | – | – | – | – | – | concentration at 0.25 h [11]: 1340 ng/mL; concentration at 1 h [12]: 70.6 ng/g; Kp at 1 h [13]: 0.19; concentration at 1 h [14]: 374 ng/mL; Activity [15]: Non-Toxic
8 | CS(=O)(=O)N1CCN(C(=O)Cc2ccc(F)c(Cl)c2)[C@@H]2[C@@H](N3CC[C@H](O)C3)CCC[C@@H]21.Cl | – | – | – | – | – | – | – | – | – | – | concentration at 0.25 h [11]: 1210 ng/mL; concentration at 1 h [12]: 38.7 ng/g; Kp at 1 h [13]: 0.11; concentration at 1 h [14]: 356 ng/mL; Activity [15]: Non-Toxic
9 | COC(=O)N1CCN(C(=O)Cc2ccc(Cl)c(F)c2)[C@@H]2[C@@H](N3CC[C@H](O)C3)CCC[C@@H]21 | 250 | 1.8 | 3.9 | 59 | 37 | 68 | 2 | 551 | – | – | –
10 | COC(=O)N1CCN(C(=O)Cc2ccc(Cl)c(Cl)c2)[C@@H]2[C@@H](N3CC[C@@H](O)C3)CCC[C@@H]21 | – | – | – | – | – | – | – | – | 13 | 55 | inhibition [16]: 0%; Activity [17]: 109%; inhibition [18]: 5%
11 | COC(=O)N1CCN(C(=O)Cc2ccc(Cl)c(Cl)c2)[C@@H]2[C@@H](N3CC[C@H](O)C3)CCC[C@@H]21 | – | – | – | – | – | – | – | – | 12 | 21 | inhibition [16]: 0%; Activity [17]: 113%
12 | O=C(Cc1ccc(Cl)c(F)c1)N1CCN(S(=O)(=O)Cc2ccon2)[C@H]2CCC[C@H](N3CC[C@H](O)C3)[C@H]21 | 1380 | 0.82 | 1.4 | – | – | – | – | – | 7 | 13 | logD [19]: 1.4; inhibition [16]: 0%; Activity [17]: 105%; inhibition [18]: 6%
13 | COC(=O)CN1CCN(C(=O)Cc2ccc(Cl)c(Cl)c2)[C@@H]2[C@@H](N3CCCC3)CCC[C@@H]21 | – | – | – | – | – | – | – | – | 0 | 13 | inhibition [16]: 0%; Activity [17]: 111%
14 | COC(=O)N1CCN(C(=O)Cc2ccc(F)c(Cl)c2)[C@@H]2[C@@H](N3CC[C@H](O)C3)CCC[C@@H]21.Cl | – | – | – | – | – | – | – | – | – | – | concentration at 0.25 h [11]: 970 ng/mL; concentration at 1 h [12]: 44 ng/g; Kp at 1 h [13]: 0.09; concentration at 1 h [14]: 465 ng/mL; Activity [15]: Non-Toxic
15 | COC(=O)N1CCN(C(=O)Cc2ccc(Cl)cc2)[C@@H]2[C@@H](N3CC[C@H](O)C3)CCC[C@@H]21 | 451 | 0.65 | 14 | 27 | 27 | 62 | 24 | 365 | – | – | –
